Read-outs that look alike come from different tables or passages of the source.
Columns and labels:
Experiment in all cases: Kinase selectivity profiling
Format in all cases: biochemical
CAMK1 = CAMK1 (Homo sapiens, UniProt Q14012)
Description: (§1) Compound 28c was profiled against a panel of 110 kinases at the International Centre for Protein Kinase Profiling, Division of Signal Transduction Therapy, University of Dundee. Compound 40f was profiled against a panel of 50 kinases (MRC-PPU Express Screen) also at the International Centre for Protein Kinase Profiling.

CAMKKb = CAMKKb (Homo sapiens, UniProt Q96RR4)
Description: as §1

CHK2 = CHK2 (Homo sapiens, UniProt O96017)
CHK2, sequence (O96017 whole entry): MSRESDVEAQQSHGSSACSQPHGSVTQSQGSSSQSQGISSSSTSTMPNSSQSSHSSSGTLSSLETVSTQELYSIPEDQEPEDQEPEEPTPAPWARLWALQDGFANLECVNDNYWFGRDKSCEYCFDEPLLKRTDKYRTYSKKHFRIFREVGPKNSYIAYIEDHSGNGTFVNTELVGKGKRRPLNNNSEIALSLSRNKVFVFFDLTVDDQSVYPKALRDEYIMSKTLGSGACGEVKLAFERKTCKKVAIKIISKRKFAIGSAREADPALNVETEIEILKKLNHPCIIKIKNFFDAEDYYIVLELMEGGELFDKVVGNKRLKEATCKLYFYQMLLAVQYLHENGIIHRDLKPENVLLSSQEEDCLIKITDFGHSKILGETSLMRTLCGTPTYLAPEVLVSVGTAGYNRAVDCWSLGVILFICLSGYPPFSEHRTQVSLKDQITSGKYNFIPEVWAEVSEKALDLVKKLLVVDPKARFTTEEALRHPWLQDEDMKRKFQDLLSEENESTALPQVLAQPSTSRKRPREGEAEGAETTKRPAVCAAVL
Description: as §1

CK2 = CK2 (Homo sapiens, UniProt P68400)
CK2, sequence (P68400 whole entry): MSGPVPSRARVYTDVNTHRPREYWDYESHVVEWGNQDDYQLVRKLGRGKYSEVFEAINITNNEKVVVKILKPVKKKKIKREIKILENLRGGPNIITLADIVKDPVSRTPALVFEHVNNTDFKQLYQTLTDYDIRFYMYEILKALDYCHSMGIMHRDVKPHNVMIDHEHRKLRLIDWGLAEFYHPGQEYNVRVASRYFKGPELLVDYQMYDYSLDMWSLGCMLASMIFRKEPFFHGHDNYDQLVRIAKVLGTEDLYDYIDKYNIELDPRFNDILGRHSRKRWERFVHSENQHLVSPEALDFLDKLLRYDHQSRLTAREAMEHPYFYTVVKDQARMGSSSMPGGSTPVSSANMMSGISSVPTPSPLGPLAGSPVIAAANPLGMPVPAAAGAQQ
Description: as §1

DYRK1A = DYRK1A (Homo sapiens, UniProt Q13627)
Description: as §1

EF2K = EF2K (Homo sapiens, UniProt O00418)
Description: as §1

EPH-A2 = EPH-A2 (Homo sapiens, UniProt P29317); settings: read-out: % activity remaining, EPH2A2
Description: as §1

GSK3b = GSK3b (Homo sapiens, UniProt P49841)
GSK3b, sequence (P49841 whole entry): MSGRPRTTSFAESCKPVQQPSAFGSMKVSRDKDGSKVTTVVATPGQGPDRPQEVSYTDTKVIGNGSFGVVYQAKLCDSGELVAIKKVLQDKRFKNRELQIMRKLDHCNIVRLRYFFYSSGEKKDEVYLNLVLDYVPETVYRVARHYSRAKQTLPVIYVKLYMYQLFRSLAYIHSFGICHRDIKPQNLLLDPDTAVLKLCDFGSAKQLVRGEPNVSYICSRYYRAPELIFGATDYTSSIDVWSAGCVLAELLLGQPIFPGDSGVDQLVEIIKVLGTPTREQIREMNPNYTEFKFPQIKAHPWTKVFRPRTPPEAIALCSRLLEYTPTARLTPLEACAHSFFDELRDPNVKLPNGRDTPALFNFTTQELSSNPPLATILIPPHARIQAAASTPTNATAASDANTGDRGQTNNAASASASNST
Description: as §1

HER4 = HER4 (Homo sapiens, UniProt Q15303)
Description: as §1

HIPK2 = HIPK2 (Homo sapiens, UniProt Q9H2X6)
HIPK2, sequence (Q9H2X6 whole entry): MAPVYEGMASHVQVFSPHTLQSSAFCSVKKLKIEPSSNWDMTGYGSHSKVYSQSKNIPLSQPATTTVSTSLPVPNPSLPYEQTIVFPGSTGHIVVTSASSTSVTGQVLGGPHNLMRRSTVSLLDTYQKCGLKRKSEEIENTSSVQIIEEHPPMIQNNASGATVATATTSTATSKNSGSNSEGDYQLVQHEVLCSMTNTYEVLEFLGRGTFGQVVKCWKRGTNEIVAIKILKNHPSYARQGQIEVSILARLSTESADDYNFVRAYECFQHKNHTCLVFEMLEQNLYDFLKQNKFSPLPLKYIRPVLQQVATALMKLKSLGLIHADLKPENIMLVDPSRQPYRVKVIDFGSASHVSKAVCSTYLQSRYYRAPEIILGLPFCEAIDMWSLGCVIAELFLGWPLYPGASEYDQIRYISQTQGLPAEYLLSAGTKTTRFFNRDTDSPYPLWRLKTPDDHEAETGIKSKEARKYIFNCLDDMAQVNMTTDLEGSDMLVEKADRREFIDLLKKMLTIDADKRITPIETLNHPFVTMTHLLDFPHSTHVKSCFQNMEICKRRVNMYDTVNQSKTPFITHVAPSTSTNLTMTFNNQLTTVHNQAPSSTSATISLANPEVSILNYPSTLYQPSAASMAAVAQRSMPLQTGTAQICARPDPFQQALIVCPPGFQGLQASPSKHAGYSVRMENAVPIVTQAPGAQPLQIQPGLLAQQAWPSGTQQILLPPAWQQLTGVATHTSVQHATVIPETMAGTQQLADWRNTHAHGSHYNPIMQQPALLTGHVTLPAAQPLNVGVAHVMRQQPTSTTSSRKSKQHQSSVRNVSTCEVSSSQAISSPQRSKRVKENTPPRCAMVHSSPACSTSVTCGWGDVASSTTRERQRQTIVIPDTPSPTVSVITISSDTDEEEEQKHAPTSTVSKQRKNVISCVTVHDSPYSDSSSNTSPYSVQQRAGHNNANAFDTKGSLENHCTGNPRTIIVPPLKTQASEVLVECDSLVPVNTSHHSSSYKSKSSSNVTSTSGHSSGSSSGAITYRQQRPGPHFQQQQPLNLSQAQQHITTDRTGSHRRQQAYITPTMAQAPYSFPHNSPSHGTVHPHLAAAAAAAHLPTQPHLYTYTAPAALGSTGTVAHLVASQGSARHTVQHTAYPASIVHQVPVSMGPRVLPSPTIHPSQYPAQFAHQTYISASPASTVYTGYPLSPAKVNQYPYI
Description: as §1

IGF-1R = IGF-1R (Homo sapiens, UniProt P08069); settings: read-out: % activity remaining, IGF21R
Description: as §1

IRAK4 = IRAK4 (Homo sapiens, UniProt Q9NWZ3)
IRAK4, sequence (Q9NWZ3 whole entry): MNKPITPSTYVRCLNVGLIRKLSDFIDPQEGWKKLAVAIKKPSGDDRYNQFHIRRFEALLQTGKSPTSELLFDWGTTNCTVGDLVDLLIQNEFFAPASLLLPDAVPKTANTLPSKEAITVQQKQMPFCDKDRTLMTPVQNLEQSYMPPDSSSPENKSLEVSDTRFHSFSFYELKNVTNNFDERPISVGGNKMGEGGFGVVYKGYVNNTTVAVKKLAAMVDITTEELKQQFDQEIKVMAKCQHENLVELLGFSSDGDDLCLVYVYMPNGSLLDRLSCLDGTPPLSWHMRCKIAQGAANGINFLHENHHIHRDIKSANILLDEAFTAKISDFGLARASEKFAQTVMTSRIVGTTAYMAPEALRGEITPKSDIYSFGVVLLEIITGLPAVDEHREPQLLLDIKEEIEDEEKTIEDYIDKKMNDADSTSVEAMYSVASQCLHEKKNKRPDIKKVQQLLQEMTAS
Description: as §1

JAK2 = JAK2 (Homo sapiens, UniProt O60674)
JAK2, sequence (O60674 whole entry): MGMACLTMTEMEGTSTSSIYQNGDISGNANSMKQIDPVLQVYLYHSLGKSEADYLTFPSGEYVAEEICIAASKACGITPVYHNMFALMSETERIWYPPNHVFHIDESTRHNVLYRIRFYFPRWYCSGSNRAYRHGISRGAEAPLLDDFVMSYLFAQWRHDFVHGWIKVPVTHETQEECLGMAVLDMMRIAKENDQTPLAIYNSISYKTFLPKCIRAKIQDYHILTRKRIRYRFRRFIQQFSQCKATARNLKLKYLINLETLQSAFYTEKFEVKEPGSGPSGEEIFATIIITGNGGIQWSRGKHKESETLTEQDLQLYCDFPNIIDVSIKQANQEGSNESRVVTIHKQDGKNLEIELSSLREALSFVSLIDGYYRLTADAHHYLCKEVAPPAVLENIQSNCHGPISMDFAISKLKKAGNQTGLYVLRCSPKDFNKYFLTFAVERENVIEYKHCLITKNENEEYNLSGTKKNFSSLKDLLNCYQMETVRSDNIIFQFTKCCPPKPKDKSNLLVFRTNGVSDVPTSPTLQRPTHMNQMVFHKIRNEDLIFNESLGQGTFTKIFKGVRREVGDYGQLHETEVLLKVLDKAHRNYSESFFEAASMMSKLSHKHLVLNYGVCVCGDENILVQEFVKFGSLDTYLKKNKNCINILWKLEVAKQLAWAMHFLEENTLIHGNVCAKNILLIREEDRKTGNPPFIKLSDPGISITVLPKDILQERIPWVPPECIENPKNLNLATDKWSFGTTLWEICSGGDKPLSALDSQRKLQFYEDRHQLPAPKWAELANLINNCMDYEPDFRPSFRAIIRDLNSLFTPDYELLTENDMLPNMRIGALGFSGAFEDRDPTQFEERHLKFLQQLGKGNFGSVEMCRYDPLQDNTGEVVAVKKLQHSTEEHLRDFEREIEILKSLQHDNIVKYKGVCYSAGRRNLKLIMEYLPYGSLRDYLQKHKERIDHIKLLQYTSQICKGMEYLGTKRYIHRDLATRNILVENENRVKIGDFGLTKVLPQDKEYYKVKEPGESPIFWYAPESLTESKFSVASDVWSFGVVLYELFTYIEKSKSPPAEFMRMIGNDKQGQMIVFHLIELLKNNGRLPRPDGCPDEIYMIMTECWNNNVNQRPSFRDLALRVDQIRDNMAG
Description: as §1

JNK1 = JNK1 (Homo sapiens, UniProt P45983)
Description: as §1

LKB1 = LKB1 (Homo sapiens, UniProt Q15831)
Description: as §1

Lck = Lck (Homo sapiens, UniProt P06239)
Description: as §1

MKK1 = MKK1 (Homo sapiens, UniProt Q02750)
Description: as §1

MSK1 = MSK1 (Homo sapiens, UniProt O75582)
Description: as §1

MST2 = MST2 (Homo sapiens, UniProt Q13188)
Description: as §1

NEK6 = NEK6 (Homo sapiens, UniProt Q9HC98)
Description: as §1

PAK4 = PAK4 (Homo sapiens, UniProt O96013)
Description: as §1

PDK1 = PDK1 (Homo sapiens, UniProt O15530)
Description: as §1

PIM1 = PIM1 (Homo sapiens, UniProt P11309)
PIM1, sequence (P11309 whole entry): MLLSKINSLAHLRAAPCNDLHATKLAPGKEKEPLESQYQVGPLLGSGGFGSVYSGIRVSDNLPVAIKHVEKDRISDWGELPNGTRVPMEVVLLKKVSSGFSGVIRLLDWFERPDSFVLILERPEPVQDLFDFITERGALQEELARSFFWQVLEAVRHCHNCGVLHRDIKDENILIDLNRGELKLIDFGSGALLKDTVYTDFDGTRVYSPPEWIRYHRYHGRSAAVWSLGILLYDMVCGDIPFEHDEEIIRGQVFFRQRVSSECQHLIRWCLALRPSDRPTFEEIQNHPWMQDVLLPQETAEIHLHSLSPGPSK
Description: as §1

PKA = PKA (Homo sapiens, UniProt P17612)
Description: as §1

PKBa = PKBa (Homo sapiens, UniProt P31749, S473D)
PKBa, sequence (P31749 118-480 S473D limits assumed): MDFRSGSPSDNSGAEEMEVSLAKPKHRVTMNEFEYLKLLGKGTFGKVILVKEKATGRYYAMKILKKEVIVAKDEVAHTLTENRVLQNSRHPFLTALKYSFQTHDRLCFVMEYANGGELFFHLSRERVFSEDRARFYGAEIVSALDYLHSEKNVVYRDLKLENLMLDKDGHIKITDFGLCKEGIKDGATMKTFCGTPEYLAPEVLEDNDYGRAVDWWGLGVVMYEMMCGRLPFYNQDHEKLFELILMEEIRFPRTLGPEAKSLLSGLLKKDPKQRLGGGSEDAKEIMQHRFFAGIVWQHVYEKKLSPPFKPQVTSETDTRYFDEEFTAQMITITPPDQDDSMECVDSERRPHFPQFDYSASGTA
Description: as §1

PKCa = PKCa (Homo sapiens, UniProt P17252)
Description: as §1

PKD1 = PKD1 (Homo sapiens, UniProt Q15139)
Description: as §1

PLK1 = PLK1 (Homo sapiens, UniProt P53350)
Description: as §1

RIPK2 = RIPK2 (Homo sapiens, UniProt O43353)
Description: as §1

ROCK 2 = ROCK 2 (Rattus norvegicus, UniProt Q62868)
Description: as §1

RSK1 = RSK1 (Homo sapiens, UniProt Q15418)
Description: as §1

S6K1 = S6K1 (Homo sapiens, UniProt P23443)
Description: as §1

SGK1 = SGK1 (Homo sapiens, UniProt O00141)
Description: as §1

SRPK1 = SRPK1 (Homo sapiens, UniProt Q96SB4)
Description: as §1

SYK = SYK (Homo sapiens, UniProt P43405)
Description: as §1

SmMLCK = SmMLCK (Homo sapiens, UniProt Q15746)
Description: as §1

TAK1 = TAK1 (Homo sapiens, UniProt O43318)
Description: as §1

TBK1 = TBK1 (Homo sapiens, UniProt Q9UHD2)
Description: as §1

TTK = TTK (Homo sapiens, UniProt P33981)
Description: as §1

TrkA = TrkA (Homo sapiens, UniProt P04629)
Description: as §1

VEGFR (VEGFR1) = VEGFR (VEGFR1) (Homo sapiens, UniProt P17948); settings: read-out: % activity remaining, VEG2FR
Description: as §1

p38a MAPK = p38a MAPK (Homo sapiens, UniProt Q16539)
Description: as §1

[1] = 50-kinase panel (MRC-PPU Express Screen)

`Cc1nn(C)cc1-c1nc2c(Oc3ccc(C(=O)Nc4ccccc4)cc3)c(Cl)cnc2[nH]1` [compound 28c, 4-((6-Chloro-2-(1,3-dimethyl-1H-pyrazol-4-yl)-3H-imidazo[4,5-b]pyridin-7-yl)oxy)-N-phenylbenzamide] was tested. Which remaining activity at 1 µM (CAMK1; 110-kinase panel) did it give?
Its remaining activity at 1 µM is 100%.

And the remaining activity at 1 µM (CAMKKb; 110-kinase panel)?
Its remaining activity at 1 µM is 86%.

And the remaining activity at 1 µM (CHK2; 110-kinase panel)?
Its remaining activity at 1 µM is 111%.

And the remaining activity at 1 µM (CK2; 110-kinase panel)?
Its remaining activity at 1 µM is 108%.

What about the remaining activity at 1 µM (DYRK1A; 110-kinase panel) of the same compound?
Its remaining activity at 1 µM is 105%.

What about the remaining activity at 1 µM (EF2K; 110-kinase panel) of the same compound?
The remaining activity at 1 µM was 93%.

What about the remaining activity at 1 µM (EPH-A2; 110-kinase panel) of the same compound?
The remaining activity at 1 µM was 138%.

And the remaining activity at 1 µM (GSK3b; 110-kinase panel)?
The remaining activity at 1 µM was 8%.

And the remaining activity at 1 µM (HER4; 110-kinase panel)?
The remaining activity at 1 µM was 95%.

And the remaining activity at 1 µM (HIPK2; 110-kinase panel)?
Its remaining activity at 1 µM is 83%.

And the remaining activity at 1 µM (IGF-1R; 110-kinase panel)?
The remaining activity at 1 µM was 98%.

What about the remaining activity at 1 µM (IRAK4; 110-kinase panel) of the same compound?
Its remaining activity at 1 µM is 95%.

And the remaining activity at 1 µM (JAK2; 110-kinase panel)?
The remaining activity at 1 µM was 63%.

What about the remaining activity at 1 µM (JNK1; 110-kinase panel) of the same compound?
The remaining activity at 1 µM was 92%.

What about the remaining activity at 1 µM (LKB1; 110-kinase panel) of the same compound?
Its remaining activity at 1 µM is 97%.

What about the remaining activity at 1 µM (Lck; 110-kinase panel) of the same compound?
Its remaining activity at 1 µM is 110%.

And the remaining activity at 1 µM (MKK1; 110-kinase panel)?
The remaining activity at 1 µM was 77%.

And the remaining activity at 1 µM (MSK1; 110-kinase panel)?
Its remaining activity at 1 µM is 89%.

And the remaining activity at 1 µM (MST2; 110-kinase panel)?
The remaining activity at 1 µM was 106%.

What about the remaining activity at 1 µM (NEK6; 110-kinase panel) of the same compound?
The remaining activity at 1 µM was 129%.

And the remaining activity at 1 µM (PAK4; 110-kinase panel)?
The remaining activity at 1 µM was 82%.

What about the remaining activity at 1 µM (PDK1; 110-kinase panel) of the same compound?
The remaining activity at 1 µM was 87%.

And the remaining activity at 1 µM (PIM1; 110-kinase panel)?
The remaining activity at 1 µM was 99%.

And the remaining activity at 1 µM (PKA; 110-kinase panel)?
Its remaining activity at 1 µM is 101%.

And the remaining activity at 1 µM (PKBa; 110-kinase panel)?
Its remaining activity at 1 µM is 105%.

And the remaining activity at 1 µM (PKCa; 110-kinase panel)?
Its remaining activity at 1 µM is 110%.

What about the remaining activity at 1 µM (PKD1; 110-kinase panel) of the same compound?
The remaining activity at 1 µM was 109%.

And the remaining activity at 1 µM (PLK1; 110-kinase panel)?
The remaining activity at 1 µM was 107%.

And the remaining activity at 1 µM (RIPK2; 110-kinase panel)?
Its remaining activity at 1 µM is 98%.

What about the remaining activity at 1 µM (ROCK 2; 110-kinase panel) of the same compound?
Its remaining activity at 1 µM is 80%.

And the remaining activity at 1 µM (RSK1; 110-kinase panel)?
The remaining activity at 1 µM was 88%.

What about the remaining activity at 1 µM (S6K1; 110-kinase panel) of the same compound?
The remaining activity at 1 µM was 81%.

What about the remaining activity at 1 µM (SGK1; 110-kinase panel) of the same compound?
The remaining activity at 1 µM was 99%.

What about the remaining activity at 1 µM (SRPK1; 110-kinase panel) of the same compound?
The remaining activity at 1 µM was 89%.

What about the remaining activity at 1 µM (SYK; 110-kinase panel) of the same compound?
The remaining activity at 1 µM was 117%.

And the remaining activity at 1 µM (SmMLCK; 110-kinase panel)?
The remaining activity at 1 µM was 91%.

What about the remaining activity at 1 µM (TAK1; 110-kinase panel) of the same compound?
Its remaining activity at 1 µM is 31%.

What about the remaining activity at 1 µM (TBK1; 110-kinase panel) of the same compound?
The remaining activity at 1 µM was 86%.

What about the remaining activity at 1 µM (TTK; 110-kinase panel) of the same compound?
Its remaining activity at 1 µM is 102%.

What about the remaining activity at 1 µM (TrkA; 110-kinase panel) of the same compound?
The remaining activity at 1 µM was 100%.

And the remaining activity at 1 µM (VEGFR (VEGFR1); 110-kinase panel)?
Its remaining activity at 1 µM is 17%.

And the remaining activity at 1 µM (p38a MAPK; 110-kinase panel)?
The remaining activity at 1 µM was 91%.

What does the source list for `Cc1nn(C)cc1-c1nc2c(Oc3ccc(C(=O)NC4CCC4)cc3)c(Cl)cnc2[nH]1` [compound 40f, 4-((6-Chloro-2-(1,3-dimethyl-1H-pyrazol-4-yl)-3H-imidazo[4,5-b]pyridin-7-yl)oxy)-N-cyclobutylbenzamide]?
remaining activity at 1 µM (CAMK1; [1]): 85%; remaining activity at 1 µM (CAMKKb; [1]): 86%; remaining activity at 1 µM (CHK2; [1]): 85%; remaining activity at 1 µM (CK2; [1]): 93%; remaining activity at 1 µM (DYRK1A; [1]): 104%; remaining activity at 1 µM (EF2K; [1]): 100%; remaining activity at 1 µM (EPH-A2; [1]): 88%; remaining activity at 1 µM (GSK3b; [1]): 25%; remaining activity at 1 µM (HER4; [1]): 92%; remaining activity at 1 µM (HIPK2; [1]): 98%; remaining activity at 1 µM (IGF-1R; [1]): 78%; remaining activity at 1 µM (IRAK4; [1]): 89%; remaining activity at 1 µM (JAK2; [1]): 75%; remaining activity at 1 µM (JNK1; [1]): 100%; remaining activity at 1 µM (LKB1; [1]): 108%; remaining activity at 1 µM (Lck; [1]): 95%; remaining activity at 1 µM (MKK1; [1]): 94%; remaining activity at 1 µM (MSK1; [1]): 94%; remaining activity at 1 µM (MST2; [1]): 141%; remaining activity at 1 µM (NEK6; [1]): 90%; remaining activity at 1 µM (PAK4; [1]): 89%; remaining activity at 1 µM (PDK1; [1]): 86%; remaining activity at 1 µM (PIM1; [1]): 87%; remaining activity at 1 µM (PKA; [1]): 90%; remaining activity at 1 µM (PKBa; [1]): 96%; remaining activity at 1 µM (PKCa; [1]): 96%; remaining activity at 1 µM (PKD1; [1]): 113%; remaining activity at 1 µM (PLK1; [1]): 104%; remaining activity at 1 µM (RIPK2; [1]): 107%; remaining activity at 1 µM (ROCK 2; [1]): 73%; remaining activity at 1 µM (RSK1; [1]): 90%; remaining activity at 1 µM (S6K1; [1]): 81%; remaining activity at 1 µM (SGK1; [1]): 85%; remaining activity at 1 µM (SRPK1; [1]): 95%; remaining activity at 1 µM (SYK; [1]): 84%; remaining activity at 1 µM (SmMLCK; [1]): 87%; remaining activity at 1 µM (TAK1; [1]): 59%; remaining activity at 1 µM (TBK1; [1]): 93%; remaining activity at 1 µM (TTK; [1]): 74%; remaining activity at 1 µM (TrkA; [1]): 58%; remaining activity at 1 µM (VEGFR (VEGFR1); [1]): 7%; remaining activity at 1 µM (p38a MAPK; [1]): 107%

— PMC3848336, “Aurora Isoform Selectivity: Design and Synthesis of Imidazo[4,5-b]pyridine Derivatives as Highly Selective Inhibitors of Aurora-A Kinase in Cells” (Journal of Medicinal Chemistry, 2013)
